Measured values taken from patent US10456441B2, “Augmenting the immune response by promoting cell death of immune cells” (The University of Vermont and State Agricultural College, priority 2014, dated 2019).
Where a SMILES comes first, the peptide text is derived from it. The star is where a group is joined. Cbz = O=C(OCc1ccccc1)*; CH2F = FC*

What was measured:
BMDC = test: Cell death of BMDC by TUNEL assay; assay type: cell-based, mice
Procedure: (§1) The preparation of bone marrow-derived dendritic cells (BMDC) was done according to the method of Lutz et al. (26) using GM-CSF ([…] PeproTech, Rocky Hill N.J.) or GM-CSF plus IL-4 (10 μg/ml, PeproTech). Cells were used on day 7.
Cell death was examined by terminal deoxynucleotidyl transferase dUTP nick end labeling (TUNEL). Briefly, cells were stained for expression of cell surface molecules, and then fixed with 1% methanol-free formaldehyde followed by 70% ethanol. After washing, the TUNEL reaction was performed by incubating cells in 50 μl of reaction mix containing 10 units of terminal deoxribosyl transferase (TdT), 2.5 mM cobalt chloride in 1× TdT buffer, and 0.2 pmol/μl of FITC-dUTP (Roche, Indianapolis, Ind.) at 37° C. for 1 hour. The cells were washed twice and fixed in 1% methanol-free formaldehyde. Murine thymocytes were included as a positive control for apoptotic cells. Flow cytometry was performed on an LSRII (BD Biosciences, San Jose, Calif.) calibrated with compensation beads (BD Biosciences). Analysis was performed using FlowJo software (Tree Star, Inc., Ashland, Oreg.).

γδ T cells = test: Mixed cultures of γδ T cells and BMDC: γδ T cell activation (IL-17, IFN-γ, CD25); assay type: cell-based, mice
Procedure: Cells were washed three times and then rocked with goat anti-rat conjugated magnetic beads at a 10:1 ratio of beads to cell at 4° C. for 45 min. Magnetic depletion was used to remove bead-bound cells. […] After 2 days, cells were removed from anti-TCR-γδ stimulation, supplied with fresh medium plus IL-2, and returned to culture at a density of 0.3×10^6 cells/ml. Cells were counted daily and supplied with fresh media containing 50 units/ml IL-2. […] In addition, in some experiments freshly isolated splenic γδ T cells were prepared using anti-γδ-coated magnetic beads (Miltenyi Biotec) and magnet purification.
as §1
Day 7 γδ T cells and BMDC were cultured either individually or together at a 1:1 ratio (10^6 cells/ml each). To some cultures the following reagents were added: a sonicate of Borrelia burgdorferi (10 μg/ml), zVAD-fmk (MP Biomedical, Santa Ana Calif.) at the doses indicated, necrostatin (50 μM, R&D Systems, Minneapolis, Minn.), anti-TNF-α (10 μg/ml, Calbiochem, Darnstadt, Germany),, anti-IL-1 Receptor antagonist, Anakinra (200 ng/ml, Amgen, Thousand Oaks, Calif.), anti-IL-12 (10 μg/ml, BioLegend San Diego, Calif.), anti-IL-18 (10 μg/ml, MBL, Woburn Mass.), or rat IgG (10 μg/ml Jackson Immunoresearch, West Grove Pa.). Transwell assays were performed using 1×10^6 γδ T cells in 1 ml of complete medium+IL-2 placed in the lower chamber, with 5×10^5 DC in 100 μl placed in the upper chamber. […]
Cytokine levels of IFN-γ, IL-1β, IL-12p40, IL-12p70, IL-17, and TNF-α were detected using the Bio-Plex, MilliPlex, or Luminex immunoassay (Bio-Rad; Millipore-EMD; R&D Systems, Minneapolis, Minn.) according to the manufacturer's protocol. Briefly, samples were run undiluted or diluted 1:10 in RPMI complete media. 50 μl of the magnetic bead working solution was added to each well, then 50 μl of appropriate samples or standards were then added to wells and incubated at room temperature for 30-120 min at 800 rpm on an IKA MS 3 digital shaker. After three washes with 100 μl Bio-Plex wash buffer, incubation with 25 μl of detection antibody solution was done at room temperature for 30-60 min on the shaker. Following another set of three washes, 50 μl of streptavidin-phycoerythrin (PE) in assay buffer was added to each well and incubated as described for the previous step. After an additional three washes, 125 μl of assay buffer was added. Sample data was analyzed with Bio-Plex Manager software.
The following monoclonal antibodies to murine cell surface molecules were purchased from BioLegend: PE-conjugated anti-CD25, APC-conjugated anti-TCR-γδ, and TNF-α neutralizing antibody. Rat IgG was purchased from Jackson Immunoresearch (West Grove, Pa.). For direct staining, single cell suspensions (1×10^6 total cells per staining condition) were washed with cold (4° C.) PBS containing 1% (w/v) BSA fraction V (Sigma) (PBS/1% BSA), incubated with unconjugated rat IgG (50 μg/ml) for 15 min at 4° C., washed again, and then incubated with the appropriate antibodies in PBS/1% BSA. After washing, the cells were fixed with freshly made 1% (v/v) methanol-free formaldehyde (Ted Pella Inc., Redding, Calif.) in PBS/1% BSA.

[1] = animal models; cited from earlier work
[2] = cultured γδ T cells + zVAD-treated BMDC, presence of B. burgdorferi, zVAD 50 μM, 20 h
[3] = freshly isolated splenic γδ T cells + zVAD-treated DC + Borrelia
[4] = freshly isolated splenic γδ T cells + zVAD-treated DC, absence of Borrelia
[5] = zVAD-treated BMDC, absence of Borrelia

In the case of CC(C)[C@H](NC(=O)OCc1ccccc1)C(=O)N[C@@H](C)C(=O)N[C@@H](CC(=O)O)C(=O)CF [zVAD, N-benzyloxycarbonyl-Val-Ala-Asp-fluoromethyl ketone] (Cbz-Val-Ala-Asp-CH2F), the “dead BMDC” value (BMDC; 50 μM zVAD, BMDC grown in GM-CSF, within 18 hours, dose-dependent) was ~80%, the “cell death of BMDC” value (BMDC; GM-CSF+IL-4-cultured BMDC with zVAD, compared to BMDC cultured with only GM-CSF) was “greatly reduced cell death” and the “expression of surface CD25 on γδ T cells” value (γδ T cells; [2]) was “increased expression”. The “production of IFN-γ by γδ T cells” value (γδ T cells; [2]) was “augmented production”, the “production of IL-17 by γδ T cells” value (γδ T cells; [2]) was “augmented production” and the “production of IFN-γ by fresh γδ T cells” value (γδ T cells; [3]) was “greatly augmented production”. For the same molecule, the “production of IL-17 by fresh γδ T cells” value (γδ T cells; [3]) was “greatly augmented production”, the “production of IFN-γ by fresh γδ T cells” value (γδ T cells; [4]) was “occurred even in the absence of Borrelia” and the “production of IL-17 by fresh γδ T cells” value (γδ T cells; [4]) was “occurred even in the absence of Borrelia”. For the same molecule, the “activation of γδ T cells in transwell assay” value (γδ T cells; no cell contact, BMDC+Borrelia+zVAD in upper chamber) was “partial activation”, the “activation of γδ T cells by supernatants alone” value (γδ T cells; supernatants from cultures with BMDC+Borrelia+zVAD, no added BMDC or Borrelia) was “could augment activation” and the “production of IFNγ by γδ T cells” value (γδ T cells; [5]) was “some production”. The “production of IL-17 by γδ T cells” value (γδ T cells; [5]) was “some production” and the “reducing cell death after ischemia in multiple tissues” value [1] was “highly effective”.
